# Laboratory results: patent publication US4873334A, “4,7-dihydropyrazolo(3,4-b) pyridine derivatives” (Shionogi & Co., Ltd., priority 1982, dated 1989)
# Experiments:
# [1] = tested on: Spontaneously Hypertensive Rats; assay: Antihypertensive action, tail-cuff systolic pressure in unanaesthetized SHR after i.p. administration; assay type: in vivo, Spontaneously Hypertensive Rats (female); conditions: 3 mg/kg intraperitoneally
# Procedure: Female Spontaneously Hypertensive Rats(hereinafter referred to as SHR) with 160 mmHg of systolic pressure were employed without anaesthetization. The systolic pressure was, after SHRs were kept warm at 50° C. for 2 to 3 minutes, bloodlessly measured by the tail-cuff method [Japan J. Pharmacol., 28, 617 (1978)] using a Physiograph and an Electrosphygmomanometer (DMP-4B, PE-300, Narco Biosystems, Inc., Houston). Each compound was intraperitoneally administered to SHR at a dose of 3 mg per kilogramm. Antihypertensive action is shown in a maximal decrease of blood pressure, i.e. a maximum difference between systolic pressures after and before the administration of the test compound; along with which the duration period is also shown.
# [2] = tested on: heart (coronary perfusate flow); assay: Coronary vasodilating action, perfusion flow change in isolated Langendorff-perfused heart; design: species or system Guinea pigs
# Procedure: (§1) Guinea pigs with 400-800g of body weight were hit strongly on their heads and the cartoid artery of each Guinea pigs was cut down in order to make them bloodless. The heart was isolated and perfused with at a constant pressure (50 cm H2 O) by the Langendorff method [Basic Pharmacology & Therapeutics, 9(4), 181 (1981)]. Krebs-Ringer bicarbonate solution (27° C.) containing 0.5% defibrinated blood was employed as a perfusate, into which a mixed gas of 95% oxygen and 5% carbon dioxide was continuously introduced. The flowing perfusate was led into a drop counter, and the changes of the flow i.e. increase and decrease are regarded as the respective indications for coronary vasodilation and vasoconstriction. The isomeric contraction of apex and the number of drops of the coronary perfusate were recorded on a Recticorder (RJG 3006, Nihon Koden) by way of an F-D Pick-up (SB-IT, Nihon Koden). […] Coronary vasodilating action is shown in changes of the quantiy of the perfusate, and systole inhibitory action is shown in those of inotropic tension.
# [3] = tested on: heart (contraction of apex); assay: Systole inhibitory action / negative inotropic action, contractile tension of isolated Langendorff-perfused heart; design: species or system Guinea pigs
# Procedure: as §1
# in vivo = conditions: mouse, female DS mice, intravenous
# Procedure: In female DS mice (body weight: about 20g), LD50 value after the intravenous administration of the compounds was calculated by the Brownlee's up and down method [J. Am. Sat. As., 48, 262 (1953)].
SMILES,Duration of Effect ([1]; Table 1 (Part 2)) [h],Maximum decrease in systolic pressure ([1]; Table 1 (Part 2)) [mmHg],"Perfusion Flow Change ([2]; 0.1 μg, Table 1 (Part 2))","Change of Contractile Tension ([3]; 0.1 μg, Table 1 (Part 2)) [%]",Duration of Effect ([1]; Table 1 (Part 1)) [h],Maximum Hypotension ([1]; Table 1 (Part 1)) [mmHg],"Perfusion Flow Change ([2]; 0.1 μg, Table 2 (Part 1))","Perfusion Flow Change ([2]; 1 μg, Table 2 (Part 1))","Change of Contractile Tension ([3]; 0.1 μg, Table 3 (Part 1)) [%]","Change of Contractile Tension ([3]; 1 μg, Table 3 (Part 1)) [%]","Perfusion Flow Change ([2]; 10 μg, Table 2 (Part 1))","Change of Contractile Tension ([3]; 10 μg, Table 3 (Part 1)) [%]",LD50 (in vivo) [mg/kg]
"COCCOC(=O)C1=C(C)Nc2c(c(CC3CCCC3)nn2C)C1c1ccccc1[N+](=O)[O-] (centres unmarked) [(E), 2-Methoxyethyl 3-cyclopentylmethyl-1,6-dimethyl-4-(2-nitrophenyl)-4,7-dihydropyrazolo[3,4-b]pyridine-5-carboxylate]",6,26,+20%,0,–,–,–,–,–,–,–,–,–
"CSCCOC(=O)C1=C(C)Nc2c(c(C3CCCC3)nn2C)C1c1ccccc1[N+](=O)[O-] (centres unmarked) [(J), 2-Methylthioethyl 3-cyclopentyl-1,6-dimethyl-4-(2-nitrophenyl)-4,7-dihydropyrazolo[3,4-b]pyridine-5-carboxylate]",6,20,+68%,0,–,–,–,–,–,–,–,–,–
"CC1=C(C(=O)OCCCOC(C)C)C(c2ccccc2[N+](=O)[O-])c2c(C3CCCC3)nn(C)c2N1 (centres unmarked) [(F), 3-Isopropoxypropyl 3-cyclopentyl-1,6-dimethyl-4-(2-nitrophenyl)-4,7-dihydropyrazolo[3,4-b]pyridine-5-carboxylate]",6,53,+65%,0,–,–,–,–,–,–,–,–,–
"CC1=C(C(=O)OCCOc2ccccc2)C(c2ccccc2[N+](=O)[O-])c2c(C3CCCC3)nn(C)c2N1 (centres unmarked) [(I), 2-Phenoxyethyl 3-cyclopentyl-1,6-dimethyl-4-(2-nitrophenyl)-4,7-dihydropyrazolo[3,4-b]pyridine-5-carboxylate]",6,74,+43%,0,–,–,–,–,–,–,–,–,–
"COCCOC(=O)C1=C(C)Nc2c(c(C3CCCC3)nn2C)C1c1ccccc1[N+](=O)[O-] (centres unmarked) [(B-2), 2-Methoxyethyl 3-cyclopentyl-1,6-dimethyl-4-(2-nitrophenyl)-4,7-dihydropyrazolo[3,4-b]pyridine-5-carboxylate]",6,45,+28%,0,–,–,–,–,–,–,–,–,–
"CC1=C(C(=O)OCCOC2CCCC2)C(c2ccccc2[N+](=O)[O-])c2c(C3CCCC3)nn(C)c2N1 (centres unmarked) [(G), 2-Cyclopentyloxyethyl 3-cyclopentyl-1,6-dimethyl-4-(2-nitrophenyl)-4,7-dihydropyrazolo[3,4-b]pyridine-5-carboxylate]",6,53,+67%,0,–,–,–,–,–,–,–,–,–
"COC(=O)C1=C(C)NC(C)=C(C(=O)OC)C1c1ccccc1[N+](=O)[O-] [(A), Nifedipine, reference compound]",6,45,+38%,-15,6,45,+38%,+100%,-15,-57,–,–,–
"COc1ccc(CCOC(=O)C2=C(C)Nc3c(c(C4CCCC4)nn3C)C2c2cccc([N+](=O)[O-])c2)cc1OC (centres unmarked) [(M), 3,4-Dimethoxyphenethyl 3-cyclopentyl-1,6-dimethyl-4-(3-nitrophenyl)-4,7-dihydropyrazolo[3,4-b]pyridine-5-carboxylate]",6,86,–,–,–,–,–,–,–,–,–,–,–
"CC1=C(C(=O)OCCc2ccc(Cl)cc2)C(c2cccc([N+](=O)[O-])c2)c2c(C3CCCC3)nn(C)c2N1 (centres unmarked) [(L), 4-Chlorophenethyl 3-cyclopentyl-1,6-dimethyl-4-(3-nitrophenyl)-4,7-dihydropyrazolo[3,4-b]pyridine-5-carboxylate]",6,74,–,–,–,–,–,–,–,–,–,–,–
"CC1=C(C(=O)OCCc2ccccc2)C(c2ccccc2[N+](=O)[O-])c2c(C3CCCC3)nn(C)c2N1 (centres unmarked) [(K), Phenethyl 3-cyclopentyl-1,6-dimethyl-4-(2-nitrophenyl)-4,7-dihydropyrazolo[3,4-b]pyridine-5-carboxylate]",6,75,+63%,0,–,–,–,–,–,–,–,–,–
"COCCOC(=O)C1=C(C)Nc2c(c(C3CCCC3)nn2C)C1c1cccc([N+](=O)[O-])c1 (centres unmarked) [(C-2), 2-Methoxyethyl 3-cyclopentyl-1,6-dimethyl-4-(3-nitrophenyl)-4,7-dihydropyrazolo[3,4-b]pyridine-5-carboxylate]",6,36,+15%,0,–,–,–,–,–,–,–,–,–
"COCCOC(=O)C1=C(C)Nc2c(c(C3CCCCC3)nn2C)C1c1ccccc1[N+](=O)[O-] (centres unmarked) [(D), 2-Methoxyethyl 3-cyclohexyl-1,6-dimethyl-4-(2-nitrophenyl)-4,7-dihydropyrazolo[3,4-b]pyridine-5-carboxylate]",6,65,+32%,0,–,–,–,–,–,–,–,–,–
"CC1=C(C(=O)OCC2CCCO2)C(c2ccccc2[N+](=O)[O-])c2c(C3CCCC3)nn(C)c2N1 (centres unmarked) [(H), 2-Tetrahydrofurylmethyl 3-cyclopentyl-1,6-dimethyl-4-(2-nitrophenyl)-4,7-dihydropyrazolo[3,4-b]pyridine-5-carboxylate]",–,0,+34%,0,–,–,–,–,–,–,–,–,–
"CCOC(=O)C1=C(C)Nc2c(c(C3CCCC3)nn2C)C1c1cccc([N+](=O)[O-])c1.Cl (centres unmarked) [(C-1), Ethyl 3-cyclopentyl-1,6-dimethyl-4-(3-nitrophenyl)-4,7-dihydropyrazolo[3,4-b]pyridine-5-carboxylate hydrochloride]",–,–,–,–,14,42,+40%,+79%,0,0,+93%,0,50.6
"COC(=O)C1=C(C)Nc2c(c(C3CCCC3)nn2C)C1c1cccc([N+](=O)[O-])c1 (centres unmarked) [(B-1), Methyl 3-cyclopentyl-1,6-dimethyl-4-(3-nitrophenyl)-4,7-dihydropyrazolo[3,4-b]pyridine-5-carboxylate]",–,–,–,–,16,66,+26%,+73%,0,0,+180%,0,31.5
